Measurements from patent publication US10160747B2, “Compounds and methods for kinase modulation, and indications therefor” (Plexxikon Inc., priority 2016, dated 2018).

Experiments:
BA/F3-FLT3-ITD + D835Y = biological target: T1, BA/F3-FLT3-ITD + D835Y (Homo sapiens, UniProt P36888, D835Y, cells depend on it, form not given); experiment: Engineered BA/F3 cell growth assay, FLT3 ITD/D835Y; type: cell-based, murine; conditions: 3 d growth
T1 sequence (P36888 with tags, fused parts or gaps INS600HVDFREYEYD/D835Y): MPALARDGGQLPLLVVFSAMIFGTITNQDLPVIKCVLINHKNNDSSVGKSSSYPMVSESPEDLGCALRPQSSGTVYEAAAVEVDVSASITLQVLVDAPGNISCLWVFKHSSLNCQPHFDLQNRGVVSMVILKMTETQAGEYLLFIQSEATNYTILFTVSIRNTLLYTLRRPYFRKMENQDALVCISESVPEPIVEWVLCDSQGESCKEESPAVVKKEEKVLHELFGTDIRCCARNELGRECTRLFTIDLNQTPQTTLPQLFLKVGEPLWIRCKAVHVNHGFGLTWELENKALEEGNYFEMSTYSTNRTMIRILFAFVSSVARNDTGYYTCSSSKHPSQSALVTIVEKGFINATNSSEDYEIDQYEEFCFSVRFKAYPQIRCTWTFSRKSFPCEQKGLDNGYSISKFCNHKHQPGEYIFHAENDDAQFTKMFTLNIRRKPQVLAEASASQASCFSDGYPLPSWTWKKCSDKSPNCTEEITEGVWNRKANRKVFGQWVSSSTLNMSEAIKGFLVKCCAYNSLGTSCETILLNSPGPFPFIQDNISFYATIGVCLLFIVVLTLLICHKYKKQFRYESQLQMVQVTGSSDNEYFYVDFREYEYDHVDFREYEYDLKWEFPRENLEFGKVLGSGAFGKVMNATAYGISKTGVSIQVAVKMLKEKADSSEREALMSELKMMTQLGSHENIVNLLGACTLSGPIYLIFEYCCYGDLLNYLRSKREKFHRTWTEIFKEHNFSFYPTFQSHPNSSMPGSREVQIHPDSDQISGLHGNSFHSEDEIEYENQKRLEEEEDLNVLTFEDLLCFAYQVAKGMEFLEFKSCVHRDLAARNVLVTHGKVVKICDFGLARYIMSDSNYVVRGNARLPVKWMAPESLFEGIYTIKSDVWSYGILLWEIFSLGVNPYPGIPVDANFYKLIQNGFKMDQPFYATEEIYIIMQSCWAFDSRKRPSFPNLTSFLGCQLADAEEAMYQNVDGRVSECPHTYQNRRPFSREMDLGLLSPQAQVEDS
Procedure, shortened: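 IC50 derived from CellTiter-Glo ATP luminescence after 3 days at 37 °C, 5% CO2, over eight 1:3 dilutions from 1 μM (0.2% DMSO final). Cells: IL-3-independent murine Ba/F3 expressing full-length FLT3 ITD/D835Y, 1×10^4 per well.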

[1] = tested on: MOLM-14 D835Y (endogenous FLT3 ITD and transfected FLT3 D835Y); experiment: MOLM-14 D835Y cell proliferation assay (CellTiter-Glo); type: cell-based; conditions: Homo sapiens, MOLM-14, 72 h; 3 d growth, GMean
Procedure, shortened: (§1)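 Three-day proliferation at 37 °C/5% CO2 of FLT3-ITD MOLM-14 lines with D835Y or F691L mutation, seeded 1×10^4 per well. Compounds at eight points, top 1 μM final, 0.2% DMSO. ATP luminescence (CellTiter-Glo) gives IC50.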

[2] = tested on: MOLM-14 F691L (endogenous FLT3 ITD and transfected FLT3 F691L); experiment: MOLM-14 F691L cell proliferation assay (CellTiter-Glo); type: cell-based; conditions: Homo sapiens, MOLM-14, 72 h; 3 d growth, GMean
Procedure, shortened: as §1

| SMILES | GI50 (BA/F3-FLT3-ITD + D835Y) | IC50 [1] | IC50 [2] |
| --- | --- | --- | --- |
| Cc1cc(CC(=O)Nc2cccc(C(F)(F)F)c2)ccc1-c1cnc2[nH]c(-c3ccccc3)cc2c1 [Compound P-0002, 2-[3-methyl-4-(2-phenyl-1H-pyrrolo[2,3-b]pyridin-5-yl)phenyl]-N-[3-(trifluoromethyl)phenyl]acetamide] | 0.0001 to 10 µM |  |  |
| O=C(Cc1ccc(-c2cnc(Nc3cnn(C(F)F)c3)nc2)c(F)c1)Nc1cc(C(F)(F)F)ccn1 [Compound P-0024, 2-[4-[2-[[1-(difluoromethyl)pyrazol-4-yl]amino]pyrimidin-5-yl]-3-fluoro-phenyl]-N-[4-(trifluoromethyl)-2-pyridyl]acetamide] | 0.0001 to 10 µM | 0.0001 to 10 µM | 0.0001 to 10 µM |
| COc1ncc(NC(=O)Cc2ccc(-c3cnc(Nc4cn[nH]c4)nc3)cc2)cc1C(F)(F)F [Compound P-0025, N-[6-methoxy-5-(trifluoromethyl)-3-pyridyl]-2-[4-[2-(1H-pyrazol-4-ylamino)pyrimidin-5-yl]phenyl]acetamide] | 0.0001 to 10 µM | 0.0001 to 10 µM | 0.0001 to 10 µM |
| COc1ncc(NC(=O)Cc2ccc(-c3cnc(Nc4cn[nH]c4)nc3)cc2F)cc1C(F)(F)F [Compound P-0026, 2-[2-fluoro-4-[2-(1H-pyrazol-4-ylamino)pyrimidin-5-yl]phenyl]-N-[6-methoxy-5-(trifluoromethyl)-3-pyridyl]acetamide] | 0.0001 to 10 µM | 0.0001 to 10 µM | 0.0001 to 10 µM |
| Cc1ncc(NC(=O)Cc2ccc(-c3cnc(Nc4cn[nH]c4)nc3)cc2F)cc1C(F)(F)F [Compound P-0027, 2-[2-fluoro-4-[2-(1H-pyrazol-4-ylamino)pyrimidin-5-yl]phenyl]-N-[6-methyl-5-(trifluoromethyl)-3-pyridyl]acetamide] | 0.0001 to 10 µM | 0.0001 to 10 µM | 0.0001 to 10 µM |
| O=C(Cc1ccc(-c2cnc3[nH]cc(F)c3c2)cc1F)Nc1ccnc(C(F)(F)F)c1 [Compound P-0029, 2-[2-fluoro-4-(3-fluoro-1H-pyrrolo[2,3-b]pyridin-5-yl)phenyl]-N-[2-(trifluoromethyl)-4-pyridyl]acetamide] | 0.0001 to 10 µM |  |  |
| O=C(Cc1ccc(-c2cnc3[nH]c(Cl)cc3c2)cc1F)Nc1ccnc(C(F)(F)F)c1 [Compound P-0030, 2-[4-(2-chloro-1H-pyrrolo[2,3-b]pyridin-5-yl)-2-fluoro-phenyl]-N-[2-(trifluoromethyl)-4-pyridyl]acetamide] | 0.0001 to 10 µM |  | 0.0001 to 10 µM |
| CC(=O)c1c[nH]c2ncc(-c3ccc(CC(=O)Nc4ccnc(C(F)(F)F)c4)c(F)c3)cc12 [Compound P-0031, 2-(4-(3-acetyl-1H-pyrrolo[2,3-b]pyridin-5-yl)-2-fluorophenyl)-N-(2-(trifluoromethyl)pyridin-4-yl)acetamide] | 0.0001 to 10 µM | 0.0001 to 10 µM |  |
| O=C(Cc1ccc(-c2cnc3[nH]cc(C(=O)C4CC4)c3c2)cc1F)Nc1ccnc(C(F)(F)F)c1 [Compound P-0032, 2-[4-[3-(cyclopropanecarbonyl)-1H-pyrrolo[2,3-b]pyridin-5-yl]-2-fluoro-phenyl]-N-[2-(trifluoromethyl)-4-pyridyl]acetamide] | 0.0001 to 10 µM | 0.0001 to 10 µM | 0.0001 to 10 µM |
| O=C(Cc1ccc(-c2cnc(Nc3cnn4ccccc34)nc2)cc1F)Nc1ccnc(C(F)(F)F)c1 [Compound P-0033, 2-[2-fluoro-4-[2-(pyrazolo[1,5-a]pyridin-3-ylamino)pyrimidin-5-yl]phenyl]-N-[2-(trifluoromethyl)-4-pyridyl]acetamide] | 0.0001 to 10 µM | 0.0001 to 10 µM | 0.0001 to 10 µM |
| COc1ncc(NC(=O)Cc2ccc(-c3cnc4[nH]cc(F)c4c3)cc2F)cc1C(F)(F)F [Compound P-0034, 2-[2-fluoro-4-(3-fluoro-1H-pyrrolo[2,3-b]pyridin-5-yl)phenyl]-N-[6-methoxy-5-(trifluoromethyl)-3-pyridyl]acetamide] | 0.0001 to 10 µM | 0.0001 to 10 µM | 0.0001 to 10 µM |

The next lines start with the values.

| GI50 (BA/F3-FLT3-ITD + D835Y) | IC50 [1] | IC50 [2] | SMILES |
| --- | --- | --- | --- |
| 0.0001 to 10 µM | 0.0001 to 10 µM | 0.0001 to 10 µM | COc1ncc(NC(=O)Cc2ccc(-c3cnc4[nH]cc(C(C)=O)c4c3)cc2F)cc1C(F)(F)F [Compound P-0035, 2-[4-(3-acetyl-1H-pyrrolo[2,3-b]pyridin-5-yl)-2-fluoro-phenyl]-N-[6-methoxy-5-(trifluoromethyl)-3-pyridyl]acetamide] |
| 0.0001 to 10 µM | 0.0001 to 10 µM |  | COc1ncc(NC(=O)Cc2ccc(-c3cnc4[nH]cc(C(=O)C5CC5)c4c3)cc2F)cc1C(F)(F)F [Compound P-0036, 2-[4-[3-(cyclopropanecarbonyl)-1H-pyrrolo[2,3-b]pyridin-5-yl]-2-fluoro-phenyl]-N-[6-methoxy-5-(trifluoromethyl)-3-pyridyl]acetamide] |
| 0.0001 to 10 µM | 0.0001 to 10 µM | 0.0001 to 10 µM | COc1ncc(NC(=O)Cc2ccc(-c3cnc(Nc4cnn5ccccc45)nc3)cc2F)cc1C(F)(F)F [Compound P-0037, 2-[2-fluoro-4-[2-(pyrazolo[1,5-a]pyridin-3-ylamino)pyrimidin-5-yl]phenyl]-N-[6-methoxy-5-(trifluoromethyl)-3-pyridyl]acetamide] |
| 0.0001 to 10 µM | 0.0001 to 10 µM | 0.0001 to 10 µM | COc1ncc(NC(=O)Cc2ccc(-c3cnc4[nH]c(Cl)cc4c3)cc2F)cc1C(F)(F)F [Compound P-0038, 2-[4-(2-chloro-1H-pyrrolo[2,3-b]pyridin-5-yl)-2-fluoro-phenyl]-N-[6-methoxy-5-(trifluoromethyl)-3-pyridyl]acetamide] |
| 0.0001 to 10 µM |  |  | COc1ncc(NC(=O)Cc2cc(F)c(-c3cnc4[nH]c(Cl)cc4c3)cc2F)cc1C(F)(F)F [Compound P-0045, 2-[4-(2-chloro-1H-pyrrolo[2,3-b]pyridin-5-yl)-2,5-difluoro-phenyl]-N-[6-methoxy-5-(trifluoromethyl)-3-pyridyl]acetamide] |
| 0.0001 to 10 µM |  |  | COc1ncc(NC(=O)Cc2ccc(-c3cnc4[nH]c(Cl)cc4c3)c(F)c2)cc1C(F)(F)F [Compound P-0046, 2-[4-(2-chloro-1H-pyrrolo[2,3-b]pyridin-5-yl)-3-fluoro-phenyl]-N-[6-methoxy-5-(trifluoromethyl)-3-pyridyl]acetamide] |
| 0.0001 to 10 µM |  |  | COc1ncc(NC(=O)Cc2ccc(-c3cnc4[nH]cc(F)c4c3)c(F)c2)cc1C(F)(F)F [Compound P-0048, 2-[3-fluoro-4-(3-fluoro-1H-pyrrolo[2,3-b]pyridin-5-yl)phenyl]-N-[6-methoxy-5-(trifluoromethyl)-3-pyridyl]acetamide] |
| 0.0001 to 10 µM |  |  | COc1ncc(NC(=O)Cc2cc(F)c(-c3cnc4[nH]cc(F)c4c3)cc2F)cc1C(F)(F)F [Compound P-0051, 2-[2,5-difluoro-4-(3-fluoro-1H-pyrrolo[2,3-b]pyridin-5-yl)phenyl]-N-[6-methoxy-5-(trifluoromethyl)-3-pyridyl]acetamide] |
| 0.0001 to 10 µM | 0.0001 to 10 µM |  | O=C(Cc1ccc(-c2cnc3c(c2)C2(CC2)C(=O)N3)cc1F)Nc1cncc(C(F)(F)F)c1 [Compound P-0064, 2-(2-fluoro-4-(2′-oxo-1′,2′-dihydrospiro[cyclopropane-1,3′-pyrrolo[2,3-b]pyridin]-5′-yl)phenyl)-N-(5-(trifluoromethyl)pyridin-3-yl)acetamide] |
| 0.0001 to 10 µM | 0.0001 to 10 µM |  | O=C(Cc1cc(F)c(-c2cnc(Nc3cnn4ccccc34)nc2)cc1F)Nc1cncc(C(F)(F)F)c1 [Compound P-0075, 2-[2,5-difluoro-4-[2-(pyrazolo[1,5-a]pyridin-3-ylamino)pyrimidin-5-yl]phenyl]-N-[5-(trifluoromethyl)-3-pyridyl]acetamide] |
| 0.0001 to 10 µM |  | 0.0001 to 10 µM | Cn1cc(Nc2ncc(-c3ccc(CC(=O)NCc4ccc(C(F)(F)F)cn4)cc3)cn2)cn1 [Compound P-0162, 2-[4-[2-[(1-methylpyrazol-4-yl)amino]pyrimidin-5-yl]phenyl]-N-[[5-(trifluoromethyl)-2-pyridyl]methyl]acetamide] |
| 0.0001 to 10 µM |  |  | Cn1cnc(Nc2ncc(-c3ccc(CC(=O)Nc4cc(C(C)(F)F)ccn4)cc3F)cn2)c1 [Compound P-0171, N-[4-(1,1-difluoroethyl)-2-pyridyl]-2-[3-fluoro-4-[2-[(1-methylimidazol-4-yl)amino]pyrimidin-5-yl]phenyl]acetamide] |
